# Source: the supplement of paper PMC10307832
# Assays:
# Assay in all cases: relative viability (nuclei count vs DMSO), 5 days (fraction); higher = more cells survive
# [1] = compound: C1CC(C1)(C(=O)O)C(=O)O.[NH2-].[NH2-].[Pt+2] [Carboplatin] + CC(=O)c1c(C)c2cnc(Nc3ccc(N4CCNCC4)cn3)nc2n(C2CCCC2)c1=O [Palbociclib] (partner 0.5 µM)
# Method in brief: (§1)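 Each reported value is a median over duplicate plates. It expresses relative viability: treated-well nuclei count divided by vehicle-well nuclei count. Lung cancer cell lines in 1536-well plates were dosed by pin tool a day after seeding, alone with one drug or with a fixed anchor-drug dose plus five library-drug doses (not always all listed) in √10 steps, and nuclei were counted after 5 days.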
# GSK126 + Phenformin = compound: CC[C@H](C)N1C=C(C2=C(C=C(C=C21)C3=CN=C(C=C3)N4CCNCC4)C(=O)NCC5=C(C=C(NC5=O)C)C)C [GSK126] + N=C(N)NC(=N)NCCc1ccccc1 [Phenformin] (partner 250 µM)
# Method in brief: as §1
# GSK126 + Olaparib = compound: CC[C@H](C)N1C=C(C2=C(C=C(C=C21)C3=CN=C(C=C3)N4CCNCC4)C(=O)NCC5=C(C=C(NC5=O)C)C)C [GSK126] + O=C(c1cc(Cc2n[nH]c(=O)c3ccccc23)ccc1F)N1CCN(C(=O)C2CC2)CC1 [Olaparib] (partner 8 µM)
# Method in brief: as §1
# MLN4924 + Phenformin = compound: NS(=O)(=O)OC[C@@H]1C[C@@H](n2ccc3c(N[C@H]4CCc5ccccc54)ncnc32)C[C@@H]1O [MLN4924] + N=C(N)NC(=N)NCCc1ccccc1 [Phenformin] (partner 250 µM)
# Method in brief: as §1
Cell Line,relative viability ([1]; first compound 0.08 µM),relative viability ([1]; first compound 0.253 µM),relative viability ([1]; first compound 0.8 µM),relative viability ([1]; first compound 2.53 µM),relative viability ([1]; first compound 8 µM),relative viability (GSK126 + Phenformin; first compound 0.08 µM),relative viability (GSK126 + Phenformin; first compound 0.253 µM),relative viability (GSK126 + Phenformin; first compound 0.8 µM),relative viability (GSK126 + Phenformin; first compound 2.53 µM),relative viability (GSK126 + Phenformin; first compound 8 µM),relative viability (GSK126 + Olaparib; first compound 0.08 µM),relative viability (GSK126 + Olaparib; first compound 0.253 µM),relative viability (GSK126 + Olaparib; first compound 0.8 µM),relative viability (GSK126 + Olaparib; first compound 2.53 µM),relative viability (GSK126 + Olaparib; first compound 8 µM),relative viability (MLN4924 + Phenformin; first compound 0.04 µM),relative viability (MLN4924 + Phenformin; first compound 0.1265 µM),relative viability (MLN4924 + Phenformin; first compound 0.4 µM),relative viability (MLN4924 + Phenformin; first compound 1.265 µM),relative viability (MLN4924 + Phenformin; first compound 4 µM)
NCI-H2023,0.433,0.384,0.318,0.326,0.121,0.445,0.383,0.373,0.377,0.278,0.489,0.496,0.446,0.467,0.382,0.392,0.393,0.175,0.0707,0.0769
ABC-1,0.976,0.805,0.886,0.651,0.504,0.243,0.262,0.268,0.244,0.242,0.573,0.698,0.869,0.691,0.659,0.274,0.298,0.229,0.212,0.222
LC-2-ad,0.503,0.561,0.419,0.466,0.47,0.627,0.634,0.583,0.56,0.642,0.703,0.698,0.67,0.712,0.357,0.506,0.491,0.372,0.223,0.203
NCI-H460,0.232,0.147,0.127,0.0559,0.052,0.587,0.531,0.523,0.483,0.468,0.434,0.397,0.388,0.326,0.29,0.548,0.448,0.496,0.0336,0.0252
NCI-H1915,0.489,0.509,0.523,0.448,0.346,0.412,0.374,0.404,0.359,0.371,0.271,0.277,0.25,0.266,0.269,0.347,0.33,0.291,0.179,0.211
NCI-H1299,–,–,–,–,–,–,–,–,–,–,1,0.93,0.922,0.921,0.976,–,–,–,–,–
HOP-62,0.441,0.431,0.462,0.409,0.383,0.672,0.68,0.672,0.642,0.68,0.447,0.506,0.414,0.455,0.428,0.393,0.335,0.134,0.0578,0.0991
EPLC-272H,0.352,0.325,0.32,0.327,0.359,0.318,0.264,0.361,0.34,0.301,0.818,0.749,0.697,0.806,0.804,0.343,0.325,0.0478,0.103,0.126
NCI-H647,0.433,0.542,0.388,0.229,0.37,0.595,0.45,0.448,0.344,0.508,0.742,0.438,0.57,0.714,0.56,0.367,0.348,0.118,0.0487,0.0541
